Measurements from the NIST ThermoML archive (doi:10.1007/s10765-012-1371-1).
± gives the expanded uncertainty stated by the source.

Columns and labels:
[1] = 101 kPa, Liquid
[2] = xn = mol fraction of the nth substance listed; details: 101 kPa, Liquid

CC(C)CCl [1-chloro-2-methylpropane]
viscosity ([1]; 283.15 K): 0.5155 ± 0.0096 mPa·s | viscosity ([1]; 288.15 K): 0.4833 ± 0.0092 mPa·s | viscosity ([1]; 293.15 K): 0.454 ± 0.0087 mPa·s | viscosity ([1]; 298.15 K): 0.4296 ± 0.0083 mPa·s | viscosity ([1]; 303.15 K): 0.4112 ± 0.008 mPa·s | viscosity ([1]; 308.15 K): 0.3921 ± 0.0078 mPa·s | viscosity ([1]; 313.15 K): 0.3726 ± 0.0075 mPa·s

CC(C)CCl [1-chloro-2-methylpropane] + CCCCOCC
viscosity ([2]; 283.15 K, x1 = 1): 0.5155 ± 0.0096 mPa·s | viscosity ([2]; 288.15 K, x1 = 1): 0.4833 ± 0.0092 mPa·s | viscosity ([2]; 293.15 K, x1 = 1): 0.454 ± 0.0087 mPa·s | viscosity ([2]; 298.15 K, x1 = 1): 0.4296 ± 0.0083 mPa·s | viscosity ([2]; 303.15 K, x1 = 1): 0.4112 ± 0.008 mPa·s | viscosity ([2]; 308.15 K, x1 = 1): 0.3921 ± 0.0078 mPa·s | viscosity ([2]; 313.15 K, x1 = 1): 0.3726 ± 0.0075 mPa·s

CCCCCl [1-chlorobutane]
viscosity ([1]; 283.15 K): 0.4993 ± 0.0094 mPa·s | viscosity ([1]; 288.15 K): 0.4701 ± 0.009 mPa·s | viscosity ([1]; 293.15 K): 0.4433 ± 0.0085 mPa·s | viscosity ([1]; 298.15 K): 0.4214 ± 0.0082 mPa·s | viscosity ([1]; 303.15 K): 0.405 ± 0.0079 mPa·s | viscosity ([1]; 308.15 K): 0.3885 ± 0.0077 mPa·s | viscosity ([1]; 313.15 K): 0.3642 ± 0.0074 mPa·s

CCCCCl [1-chlorobutane] + CCCCOCC
viscosity ([2]; 283.15 K, x1 = 1): 0.4993 ± 0.0094 mPa·s | viscosity ([2]; 288.15 K, x1 = 1): 0.4701 ± 0.009 mPa·s | viscosity ([2]; 293.15 K, x1 = 1): 0.4433 ± 0.0085 mPa·s | viscosity ([2]; 298.15 K, x1 = 1): 0.4214 ± 0.0082 mPa·s | viscosity ([2]; 303.15 K, x1 = 1): 0.405 ± 0.0079 mPa·s | viscosity ([2]; 308.15 K, x1 = 1): 0.3885 ± 0.0077 mPa·s | viscosity ([2]; 313.15 K, x1 = 1): 0.3642 ± 0.0074 mPa·s

CCC(C)Cl (configuration not stated) [2-chlorobutane]
viscosity ([1]; 283.15 K): 0.4631 ± 0.0088 mPa·s | viscosity ([1]; 288.15 K): 0.4365 ± 0.0084 mPa·s | viscosity ([1]; 293.15 K): 0.4167 ± 0.0081 mPa·s | viscosity ([1]; 298.15 K): 0.3993 ± 0.0079 mPa·s | viscosity ([1]; 303.15 K): 0.38 ± 0.0076 mPa·s | viscosity ([1]; 308.15 K): 0.3615 ± 0.0073 mPa·s | viscosity ([1]; 313.15 K): 0.3443 ± 0.0071 mPa·s

CCC(C)Cl (configuration not stated) [2-chlorobutane] + CCCCOCC
viscosity ([2]; 283.15 K, x1 = 1): 0.4631 ± 0.0088 mPa·s | viscosity ([2]; 288.15 K, x1 = 1): 0.4365 ± 0.0084 mPa·s | viscosity ([2]; 293.15 K, x1 = 1): 0.4167 ± 0.0081 mPa·s | viscosity ([2]; 298.15 K, x1 = 1): 0.3993 ± 0.0079 mPa·s | viscosity ([2]; 303.15 K, x1 = 1): 0.38 ± 0.0076 mPa·s | viscosity ([2]; 308.15 K, x1 = 1): 0.3615 ± 0.0073 mPa·s | viscosity ([2]; 313.15 K, x1 = 1): 0.3443 ± 0.0071 mPa·s

COC(C)(C)C [2-methoxy-2-methylpropane]
viscosity ([1]; 283.15 K): 0.3897 ± 0.0078 mPa·s | viscosity ([1]; 288.15 K): 0.364 ± 0.0074 mPa·s | viscosity ([1]; 293.15 K): 0.3482 ± 0.0071 mPa·s | viscosity ([1]; 298.15 K): 0.3327 ± 0.0069 mPa·s | viscosity ([1]; 303.15 K): 0.3152 ± 0.0066 mPa·s | viscosity ([1]; 308.15 K): 0.2994 ± 0.0064 mPa·s | viscosity ([1]; 313.15 K): 0.2846 ± 0.0062 mPa·s

COC(C)(C)C [2-methoxy-2-methylpropane] + CC(C)CCl
viscosity ([2]; 283.15 K, x2 = 0): 0.3897 ± 0.0078 mPa·s | viscosity ([2]; 288.15 K, x2 = 0): 0.364 ± 0.0074 mPa·s | viscosity ([2]; 293.15 K, x2 = 0): 0.3482 ± 0.0071 mPa·s | viscosity ([2]; 298.15 K, x2 = 0): 0.3327 ± 0.0069 mPa·s | viscosity ([2]; 303.15 K, x2 = 0): 0.3152 ± 0.0066 mPa·s | viscosity ([2]; 308.15 K, x2 = 0): 0.2994 ± 0.0064 mPa·s | viscosity ([2]; 313.15 K, x2 = 0): 0.2846 ± 0.0062 mPa·s

COC(C)(C)C [2-methoxy-2-methylpropane] + CCC(C)Cl
viscosity ([2]; 283.15 K, x2 = 0): 0.3897 ± 0.0078 mPa·s | viscosity ([2]; 288.15 K, x2 = 0): 0.364 ± 0.0074 mPa·s | viscosity ([2]; 293.15 K, x2 = 0): 0.3482 ± 0.0071 mPa·s | viscosity ([2]; 298.15 K, x2 = 0): 0.3327 ± 0.0069 mPa·s | viscosity ([2]; 303.15 K, x2 = 0): 0.3152 ± 0.0066 mPa·s | viscosity ([2]; 308.15 K, x2 = 0): 0.2994 ± 0.0064 mPa·s | viscosity ([2]; 313.15 K, x2 = 0): 0.2846 ± 0.0062 mPa·s

COC(C)(C)C [2-methoxy-2-methylpropane] + CCCCCl
viscosity ([2]; 283.15 K, x2 = 0): 0.3897 ± 0.0078 mPa·s | viscosity ([2]; 288.15 K, x2 = 0): 0.364 ± 0.0074 mPa·s | viscosity ([2]; 293.15 K, x2 = 0): 0.3482 ± 0.0071 mPa·s | viscosity ([2]; 298.15 K, x2 = 0): 0.3327 ± 0.0069 mPa·s | viscosity ([2]; 303.15 K, x2 = 0): 0.3152 ± 0.0066 mPa·s | viscosity ([2]; 308.15 K, x2 = 0): 0.2994 ± 0.0064 mPa·s | viscosity ([2]; 313.15 K, x2 = 0): 0.2846 ± 0.0062 mPa·s

CCCCOCC [butyl ethyl ether]
viscosity ([1]; 283.15 K): 0.4796 ± 0.0091 mPa·s | viscosity ([1]; 288.15 K): 0.4509 ± 0.0087 mPa·s | viscosity ([1]; 293.15 K): 0.4242 ± 0.0083 mPa·s | viscosity ([1]; 298.15 K): 0.399 ± 0.0079 mPa·s | viscosity ([1]; 303.15 K): 0.3756 ± 0.0075 mPa·s | viscosity ([1]; 308.15 K): 0.356 ± 0.0072 mPa·s | viscosity ([1]; 313.15 K): 0.3416 ± 0.007 mPa·s
